# Source: patent publication US20220087952A1, “ANTI-APICOMPLEXAN COMPOSITIONS” (priority 2019, published 2022)
# Tests used:
# [1] = tested on: Eimeria spp. (Paracox 5 at twenty-fold dose); assay: Eimeria-infected chicks given supplemented drinking water (Example 5); type: in vivo; settings: for Body weight of chicks (Means ± SE) / Average daily gain / Oocyst counts in droppings: C uninfected, T infected, AS % antisolvent, GA ppm gallic acid in water
# Procedure: 160 chicks allotted to 8 treatments, encompassing two groups of uninfected birds and six groups of Eimeria-infected birds, were tested. Birds were administered water treatment from 7 days of age and infected when 10-days old.
# Inoculation was individually, per os, by using a dose of Paracox 5, a live attenuated anticoccidial vaccine including administered at the twenty-fold the recommended dose (Table 2), in a volume of 1 ml, when chicks were 10 days old. Uninfected birds were given the same volume of saline. Eimeria spp were as in Table 2.
# (§1) Water was supplied in 3-liter poultry troughs that were re-filled when needed. Tap water was initially given and water supplementation was initiated three days after chicks' arrival. Water treatments for the uninfected (C) birds were no antisolvent and no gallic acid (C_AS0%_GA0) and 1% antisolvent with 500 ppm of gallic acid (C_AS1%_GA500).
# (§2) Water treatments for the infected (T) birds were bi-factorial with 3 levels of antisolvent (AS; 0, 0.5, and 1%) and two levels of gallic acid (GA; 0 and 500 ppm) resulting in 6 groups: […], T_AS0.5%_GA0, T_AS1%_GA0, T_AS0.5%_GA0, T_AS0.5% _GA500, and T_AS1%_GA500.
# (§3) Birds were wing-tagged and weighed on infection day and then, 7 days after infection. Half of the birds were weighed and humanely euthanized by exposure to CO2 on day 14 after infection and the second half on day 17 after infection. Water intake was recorded. Droppings were collected from a 1 m^2 paper sheet placed in each group 12 h before each weighing and kept at 4° C. until oocysts were counted under a grated microscope at ×100 and ×400 at days 0, and 7.
# No existing method, based on mono-species Eimeria infection, was satisfactory. The duodenum was examined at three sites (proximal, medial, distal) and a separate score was recorded for each. In contrast, only one score was recorded for the ileum-jejunum, and one for the caeca. Organ scores were termed D (average of 3 sites along the duodenum), J, and C. Three composite scores were established: a. sum of the average duodenal score, the jejunal score and the caecal score; b. sum of the maximal duodenal, jejunal and caecal scores; c. number of lesion-affected organs (1-3).
# Data for body weight (BW) and average daily gain was log-transformed in order to homogenize variances. The C_AS0%_GA0 and […] in order to assess the effect of infection. The C_AS0%_GA0 and the C_AS1%_GA500 were compared to evaluate possible toxicity due to water treatment. All groups encompassing bi-factorial levels of AS and GA were compared by bi-factorial ANOVA.
# For the analysis of lesions, for each treatment and slaughter day, the Wilcoxon Rank Sum Test was run. Then, using the Iman-Connover method, a rank transformation was done on original data and a two-way ANOVA was run on the ranked data. The treatment x day interaction was significant for J. Sum DJC, and #organs affected and Pairwise comparisons were made by Tukey test.
# [2] = tested on: Eimeria spp. (Paracox 5 at twenty-fold dose); assay: as above; type: in vivo; settings: d 14 relative to infection day; C uninfected, T infected; AS % antisolvent, GA ppm gallic acid in water
# [3] = tested on: Eimeria arloingi oocyst extracted from goat feces; assay: In-vitro oocyst sporulation assay (Example 2); type: cell-based; settings: in Capra hircus, read-out: sporulation impairment (inhibition of sporulation) compared to control
# Procedure: Eimeria-infected feces were collected from goats and stored at 4° C. Later, 3 grams of feces were mixed with 42 ml of tap water. The sample was homogenized and passed through a mesh, after which the filtered liquid was collected into 50 ml tubes. The liquid was then washed three times with cold tap water and centrifuged (1,700 G, 5 minutes, 20° C.). In each wash, the supernatant was carefully removed and approximately 30 to 40 ml of cold water was added. After the last wash, the water was removed and replaced with saturated sugar flotation solution (500 gr sucrose in 320 ml double distilled water), wherein each tube was filled with up to 45 ml of the sugar flotation solution. Each tube was centrifuged twice, wherein after each round of centrifugation, the ring-shaped phase formed on the top of the sugar solution was collected (about 1-2 ml collected after each round) and preserved in a 50 ml plastic tube.
# The plastic tube was filled with cold water and centrifuged again. Oocysts were found in the sediment after centrifugation. The water was gently removed and the concentration of the oocysts was evaluated. The oocysts were then stored at 4° C. until use (the use of unsporulated oocysts that are older than two weeks was avoided). It is noted that a 2% potassium dichromate solution may be used for conservation. The unsporulated oocytes were washed in cold phosphate buffered saline (PBS, X10) before use in order to remove potassium dichromate (if used). The concentration of the oocysts was adjusted to approximately 30,000/ml.
# Extract was prepared according to Example 1 above. Extract can be mixed with Phosphate buffer saline (PBS, X1, w:w, 1:10) if not perfectly soluble in water.
# Each assay was in triplicates for each concentration of extract and gallic acid purchased at Sigma. In addition, six concentrations of gallic acid (50, 150, 250, 350, 450, 550 ppm) were added to 2000 and 4000 ppm of the invention extract to check synergism of gallic acid and the extract on impairment of sporulation. […]
# [4] = Water intake and toxicity of supplemented drinking water in chicks (Example 5); type: in vivo
# From the text: as §1, §2, §3
# Data for body weight (BW) and average daily gain was log-transformed in order to homogenize variances. The C_AS0%_GA0 and […] in order to assess the effect of infection. The C_AS0%_GA0 and the C_AS1%_GA500 were compared to evaluate possible toxicity due to water treatment. […]
structure (smiles),measurement,setting,value
"O=C(O)c1cc(O)c(O)c(O)c1 [Gallic acid, gallic acid]",Body weight of chicks (Means ± SE),[1]; D 17 relative to infection day,1290.0 ± 83.4 ab
same,Average daily gain,[1]; Days 0-7,32.9 ± 1.4 g/day
same,Average daily gain,[1]; Days 8-14,53.2 ± 2.5 g/day
same,Average daily gain,[1]; Days 14-17,99.9 ± 6.2 g/day
same,Body weight of chicks (Means ± SE),[1]; d 0 relative to infection day,168.9 ± 4.3
same,Oocyst counts in droppings,[1]; d 0 relative to infection day,0 gr^−1
same,Body weight of chicks (Means ± SE),[1]; d 7 relative to infection day,399.5 ± 13.4 a
same,Oocyst counts in droppings,[1]; d 7 relative to infection day,"10,650 gr^−1"
same,Body weight of chicks (Means ± SE),[1]; d 14 relative to infection day,984.4 ± 40.1 ab
same,"growth performance / body weight of Eimeria-infected birds, in words","[1]; water treatment from 7 days of age, infection at 10 days, dose in label",no advantage in adding gallic acid if an AS treatment was given
same,Oocyst counts in droppings,[2],"3,600 gr^−1"
same,inhibition at 50 µg/mL,[3],25%
same,Water intake,"[4]; code: C uninfected, T infected, AS % antisolvent (0.5% = 5,000 ppm, 1% = 10,000 ppm), GA ppm gallic acid in water",132 ml chick^−1 dr^−1
same,signs of toxicity,[4]; in vivo,No signs of toxicity whatsoever
"O=C(O)/C=C/c1ccc(O)c(O)c1 [caffeic acid, Caffeic acid]",inhibition at 50 µg/mL,[3],43%
COc1cc(C(=O)O)ccc1O [vanillic acid],inhibition at 50 µg/mL,[3],23%
